Biological target: T1, delF508-CFTR-HRP (Homo sapiens, UniProt P13569, DEL508-508)
T1 construct: expressed in transfected cells
Experiment: Measurement of delF508-CFTR-HRP surface expression in CFBE41o- cells (HRP luminescence);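 for DelF508-CFTR-HRP Amax %: percent efficacy relative to a reference CFTR corrector compound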
Type: cell-based
Conditions: for EC50: mean of at least two replicates; for Emax: CFBE41o-, read-out: DelF508-CFTR-HRP Amax %
Text: Measurement of delF508-CFTR-HRP Surface Expression in CFBE41o-Cells
This assay quantifies the cell surface expressions of the mutant CFTR channel using an extracellular HRP tag.
A cellular assay was developed to measure surface expression of horseradish peroxidase (HRP) tagged delF508-CFTR in the human bronchial epithelial immortalized CFBE41o-cell line (Phuan, P. W., et al, (2014) Molecular Pharmacology 86:42-51). Specifically, the HRP sequence was inserted into the fourth extracellular loop of delF508-CFTR and stably expressed in CFBE41o-cells. Cells were seeded in 384 well plate at a density of 5000 cells/well and incubated at 37° C. for 12 to 24 hours in medium (Gibco MEM #11095, 10% FBS, 10 mM HEPES, […], 200 μg/mL G418, 3 μg/mL Puromycin). The delF508-CFTR-HRP expression was induced with 500 ng/mL doxycycline (Sigma D-9891, dissolved in H2O and sterile filtered) in medium and the cells were incubated at 37° C. for 48 h. Old medium was removed and fresh medium was added containing 500 ng/mL doxycycline and unknown test compound at required test concentration in DMSO, not exceeding 0.5% final DMSO concentration. The highest concentration tested was 10 μM with a 10-point concentration response curve using a 3-fold dilution. After addition of compounds, the cells were incubated for 24 h at 37° C. On the final day, cells were washed four times in PBS containing 1 mM MgCl2 and 0.1 mM CaCl2. HRP-Substrate (SuperSignal ELISA Pico, Fisher #37069) 20 μl/well was added and the luminescence signal was determined (Viewlux, Perkin Elmer). Light was emitted upon addition of exogenous HRP-Substrate only when delF508-CFTR-HRP reached the cell surface and the HRP tag was accessible to the HRP-Substrate (note: HRP-Substrate cannot cross the lipid bilayer to reach delF508-CFTR-HRP misfolded within the cell).
The median activity for the lowest concentration of the compounds on each assay plate was calculated and this value was used to normalize the signal for each well on the respective plate. Three replicates at each concentrations for every compound were run to determine one EC50. The median value was determined and used to calculate compound activities as described below. Effective half maximal values (EC50) were calculated for each compound by performing logistic regression on measured dose-response data points using the equation: […]
where “Y” is the observed activity, “Bottom” is the lowest observed value, “Top” is the highest observed value, and the “Hill coefficient” gives the largest absolute value of the slope. The curve fitting is carried out by a curve fitting program implemented at GNF using Matlab (Mathworks). The dose response curves also were used to calculate Fold Change (FC) using the equation: […]
Compound efficacy relative to the reference compound 3-(6-(1-(2,2-difluorobenzo[d][1,3]dioxol-5-yl)cyclopropane-1-carboxamido)-3-methylpyridin-2-yl)benzoic acid was determined using the following formula: […]

T1 sequence (P13569 with tags, fused parts or gaps DEL508-508): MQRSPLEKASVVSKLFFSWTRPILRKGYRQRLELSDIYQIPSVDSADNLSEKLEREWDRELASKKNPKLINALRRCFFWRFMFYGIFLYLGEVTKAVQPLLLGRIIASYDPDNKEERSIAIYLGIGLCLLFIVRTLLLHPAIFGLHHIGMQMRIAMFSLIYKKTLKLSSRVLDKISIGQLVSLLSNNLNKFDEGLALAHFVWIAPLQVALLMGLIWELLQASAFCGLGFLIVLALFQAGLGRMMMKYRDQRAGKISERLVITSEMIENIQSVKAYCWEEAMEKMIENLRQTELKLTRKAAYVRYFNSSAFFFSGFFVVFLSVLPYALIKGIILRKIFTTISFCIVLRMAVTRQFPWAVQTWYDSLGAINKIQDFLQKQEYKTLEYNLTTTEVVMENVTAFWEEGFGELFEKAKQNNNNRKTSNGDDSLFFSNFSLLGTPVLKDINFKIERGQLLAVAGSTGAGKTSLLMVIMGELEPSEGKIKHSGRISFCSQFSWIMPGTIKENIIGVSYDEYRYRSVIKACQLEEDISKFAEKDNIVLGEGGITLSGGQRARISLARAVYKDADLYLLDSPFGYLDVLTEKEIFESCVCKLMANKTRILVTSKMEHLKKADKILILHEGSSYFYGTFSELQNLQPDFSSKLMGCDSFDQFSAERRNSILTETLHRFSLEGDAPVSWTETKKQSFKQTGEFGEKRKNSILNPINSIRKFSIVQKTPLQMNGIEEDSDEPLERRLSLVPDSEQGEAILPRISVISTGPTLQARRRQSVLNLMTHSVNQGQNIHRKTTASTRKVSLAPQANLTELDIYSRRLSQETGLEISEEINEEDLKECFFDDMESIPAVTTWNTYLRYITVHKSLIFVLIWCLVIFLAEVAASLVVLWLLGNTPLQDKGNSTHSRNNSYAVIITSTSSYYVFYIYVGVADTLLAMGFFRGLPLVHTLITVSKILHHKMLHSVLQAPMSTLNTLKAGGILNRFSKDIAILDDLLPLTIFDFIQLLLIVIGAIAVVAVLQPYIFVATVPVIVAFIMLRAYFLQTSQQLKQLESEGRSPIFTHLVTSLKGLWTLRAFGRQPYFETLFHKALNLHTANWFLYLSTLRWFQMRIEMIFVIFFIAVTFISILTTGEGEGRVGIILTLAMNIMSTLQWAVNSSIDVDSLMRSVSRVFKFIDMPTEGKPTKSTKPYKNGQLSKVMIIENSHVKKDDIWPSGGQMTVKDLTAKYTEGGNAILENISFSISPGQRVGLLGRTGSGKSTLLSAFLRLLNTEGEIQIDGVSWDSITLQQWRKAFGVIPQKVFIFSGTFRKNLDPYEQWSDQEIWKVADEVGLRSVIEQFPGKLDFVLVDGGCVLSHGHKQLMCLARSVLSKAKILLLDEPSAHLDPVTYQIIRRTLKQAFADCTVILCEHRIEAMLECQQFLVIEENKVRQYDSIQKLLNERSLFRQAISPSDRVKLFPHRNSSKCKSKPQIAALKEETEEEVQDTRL

Row | Structure (SMILES) | DelF508-CFTR-HRP Amax % | EC50 | Emax
1 | CC1(C)CCN(c2ccc(Cl)cc2OC2(C(=O)NS(=O)(=O)c3cccc(N4CCCC(C)(O)C4)n3)CC2)CC1 (single isomer, unassigned) [Example 9-43-1, 1-(5-Chloro-2-(4,4-dimethylpiperidin-1-yl)phenoxy)-N-((6-(3-hydroxy-3-methylpiperidin-1-yl)pyridin-2-yl)sulfonyl)cyclopropane-1-carboxamide] | 545.9% | 1170 nM | –
2 | CC1(C)CN(c2ccc(Cl)cc2OC2(C(=O)NS(=O)(=O)c3cccc(N4CC[C@H](O)C4)n3)CC2)CC2(CCCC2)O1 [Example 9-33, (S)-1-(5-Chloro-2-(7,7-dimethyl-6-oxa-9-azaspiro[4.5]decan-9-yl)phenoxy)-N-((6-(3-hydroxypyrrolidin-1-yl)pyridin-2-yl)sulfonyl)cyclopropanecarboxamide] | – | 2270 nM | 265%
3 | O=C(NS(=O)(=O)c1cccc(N2CC3CCC(C2)O3)n1)C1(Oc2cc(Cl)ccc2C2CC3(CCC3)C2)CC1 [Example 7-16, N-((6-(8-Oxa-3-azabicyclo[3.2.1]octan-3-yl)pyridin-2-yl)sulfonyl)-1-(5-chloro-2-(spiro[3.3]heptan-2-yl)phenoxy)cyclopropane-1-carboxamide] | – | 1240 nM | 381%
4 | Cc1ccc(OC2CCC(C(C)(C)C)CC2)c(OC2(C(=O)NS(=O)(=O)c3cccc(N4CCC(O)(C(F)(F)F)CC4)n3)CC2)c1 (centres unmarked) [Example 6-8, 1-(2-((4-(tert-butyl)cyclohexyl)oxy)-5-methylphenoxy)-N-((6-(4-hydroxy-4-(trifluoromethyl)piperidin-1-yl)pyridin-2-yl)sulfonyl)cyclopropanecarboxamide] | – | 210 nM | 428%
5 | O=C(NS(=O)(=O)c1cccc(N2CC[C@H](O)C2)n1)C1(Oc2cc(Cl)ccc2N2CCCC3(CCCC3)C2)CC1 [Example 9-15, (S)-1-(5-Chloro-2-(7-azaspiro[4.5]decan-7-yl)phenoxy)-N-((6-(3-hydroxypyrrolidin-1-yl)pyridin-2-yl)sulfonyl)cyclopropanecarboxamide] | – | 290 nM | 477%
6 | Cc1ccc(OC2CCCC2)c(OC2(C(=O)NS(=O)(=O)c3cccc(N4CCC(C)(C#N)CC4)n3)CC2)c1 [Example 6-2, N-((6-(4-cyano-4-methylpiperidin-1-yl)pyridin-2-yl)sulfonyl)-1-(2-(cyclopentyloxy)-5-methylphenoxy)cyclopropanecarboxamide] | – | 2180 nM | 289%
7 | CC1(C)CCCN(c2ccc(Cl)cc2OC2(C(=O)NS(=O)(=O)c3cccc(N4CC[C@H](O)C4)n3)CC2)C1 [Example 9-4, (S)-1-(5-chloro-2-(3,3-dimethylpiperidin-1-yl)phenoxy)-N-((6-(3-hydroxypyrrolidin-1-yl)pyridin-2-yl)sulfonyl)cyclopropanecarboxamide] | – | 750 nM | 835%
8 | O=C(NS(=O)(=O)c1cccc(N2CCC3(CCCO3)CC2)n1)C1(Oc2cc(Cl)ccc2C2CC3(CCC3)C2)CC1 [Example 7-6, N-((6-(1-oxa-8-azaspiro[4.5]decan-8-yl)pyridin-2-yl)sulfonyl)-1-(5-chloro-2-(spiro[3.3]heptan-2-yl)phenoxy)cyclopropanecarboxamide] | – | 850 nM | 408%
9 | CC1(C)CCN(c2ccc(Cl)cc2OC2(C(=O)NS(=O)(=O)c3cccc(N)n3)CC2)CC1 [Example 9-45, N-((6-Aminopyridin-2-yl)sulfonyl)-1-(5-chloro-2-(4,4-dimethylpiperidin-1-yl)phenoxy)cyclopropane-1-carboxamide] | – | 2170 nM | 189%
10 | O=C(NS(=O)(=O)c1cccc(N2CC[C@H](O)C2)n1)C1(Oc2cc(Cl)ccc2N2CC3(CCOCC3)C2)CC1 [Example 9-36, (S)-1-(5-Chloro-2-(7-oxa-2-azaspiro[3.5]nonan-2-yl)phenoxy)-N-((6-(3-hydroxypyrrolidin-1-yl)pyridin-2-yl)sulfonyl)cyclopropanecarboxamide] | – | 1690 nM | 52%

Source: patent US20220033407A1, “N-(pyridin-2-ylsulfonyl)cyclopropanecarboxamide Derivatives and their Use in the Treatment of Disease” (NOVARTIS AG, priority 2018, published 2022)
